Reference: ChEMBL document CHEMBL3045657, “Synthesis and biological evaluation of naphthalene, furan and pyrrole based chalcones as cytotoxic and antimicrobial agents” (2012)
Converted amounts (≈) assume the structure as drawn.

What was measured:
Type in all cases: functional
PC-3 = assay: Cytotoxicity against Homo sapiens (human) PC3 cells assessed as cell growth inhibition at 1 x 10^-5 M after 48 hr by SRB assay; conditions: PC-3, 48 h, read-out: GI
Pseudomonas aeruginosa = assay: Antibacterial activity against Pseudomonas aeruginosa MTCC 2642 after 24 hr by serial tube dilution method; conditions: MTCC 2642, 24 h
Bacillus subtilis = assay: Antibacterial activity against Bacillus subtilis MTCC 2451 after 24 hr by serial tube dilution method; conditions: MTCC 2451, 24 h
Escherichia coli = assay: Antibacterial activity against Escherichia coli MTCC 82 after 24 hr by serial tube dilution method; conditions: MTCC 82, 24 h
HEp-2 = assay: Cytotoxicity against Homo sapiens (human) Hep2 cells assessed as cell growth inhibition at 1 x 10^-5 M after 48 hr by SRB assay; conditions: HEp-2, 48 h, read-out: GI
OVCAR = assay: Cytotoxicity against Homo sapiens (human) OVCAR cells assessed as cell growth inhibition at 1 x 10^-5 M after 48 hr by SRB assay; conditions: read-out: GI
Candida albicans = assay: Antifungal activity against Candida albicans MTCC 3018 after 48 hr by serial tube dilution method; conditions: MTCC 3018, 48 h
Aspergillus niger = assay: Antifungal activity against Aspergillus niger MTCC 1344 after 48 hr by serial tube dilution method; conditions: MTCC 1344, 48 h
IMR-32 = assay: Cytotoxicity against Homo sapiens (human) IMR32 cells assessed as cell growth inhibition at 1 x 10^-5 M after 48 hr by SRB assay; conditions: IMR-32, 48 h, read-out: GI
Staphylococcus aureus = assay: Antibacterial activity against Staphylococcus aureus MTCC 96 after 24 hr by serial tube dilution method; conditions: MTCC 96, 24 h
Salmonella typhi = assay: Antibacterial activity against Salmonella enterica subsp. enterica serovar Typhi MTCC 1251 after 24 hr by serial tube dilution method; conditions: MTCC 1251, 24 h

COc1cc(/C=C/C(=O)c2ccc3ccccc3c2)cc(OC)c1OC
inhibition of growth at 10 µM (PC-3): 84%
MIC (Pseudomonas aeruginosa): 15.6 µg/mL (≈ 44.8 µM)
MIC (Bacillus subtilis): 3.9 µg/mL (≈ 11.2 µM)
MIC (Escherichia coli): 3.9 µg/mL (≈ 11.2 µM)
inhibition of growth at 10 µM (HEp-2): 79%
inhibition of growth at 10 µM (OVCAR): 87%
MIC (Candida albicans): 125 µg/mL (≈ 359 µM)
MIC (Aspergillus niger): 125 µg/mL (≈ 359 µM)
inhibition of growth at 10 µM (IMR-32): 81%
MIC (Staphylococcus aureus): 1.9 µg/mL (≈ 5.45 µM)
MIC (Salmonella typhi): 15.6 µg/mL (≈ 44.8 µM)
